In PubChem BioAssay (NCI) one finds TGI data, which are given here for 15 compounds.

Structures are written as SMILES.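 Briefly, cells in 96-well plates were exposed to five compound concentrations for 48 h, and endpoints were estimated by linear interpolation. TGI is the concentration that stops growth completely.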

Assay in all cases: NCI anticancer screen, dose series, 48 h
Assay [1] concerns 786-0 renal.
Assay [2] concerns A498 renal.
The test system of assay [3] is CAKI-1 renal.
The subject of assay [4] is COLO 205 colon.
In assay [5] the test system is HCT-116 colon.
The subject of assay [6] is KM12 colon.
Assay [7] has as its system MDA-N.
Assay [8] relates to MOLT-4 leukemia.
Assay [9] deals with OVCAR-3 ovarian.
The subject of assay [10] is OVCAR-5 ovarian.
Assay [11] concerns SF-539 CNS.
For assay [12], the system named is SK-MEL-28 melanoma.
For assay [13], the system named is SK-MEL-5 melanoma.
Assay [14] has as its system SR leukemia.
The subject of assay [15] is SW-620 colon.
The subject of assay [16] is TK-10 renal.
Assay [17] concerns U251 CNS.
The subject of assay [18] is UACC-257 melanoma.
Assay [19] deals with UACC-62 melanoma.
Assay [20] has as its system RXF 393 renal.

As to `COc1ccc(CN(Cc2ccc(OC)cc2)C(=O)CC2(O)C=CCC2)cc1` (configuration not stated), the TGI in assay [1], in [2], in assay [3], in assay [4], in [5] and in assay [6] was more than 100 µM each time. For the same compound, the TGI in assay [7], in assay [8], in assay [9], in [10], in assay [11] and in assay [12] was more than 100 µM in each case. In addition, the TGI in assay [13], in assay [14], in [15], in [16], in assay [17] and in assay [18] was more than 100 µM throughout. In assay [19], this compound displayed a TGI of more than 100 µM.

Consider `C[C@@H]1C[C@](O)([C@@H](C)Cl)C(=O)O[C@@H]2CCN3CC=C(COC(=O)[C@]1(C)O)[C@H]23`, for which the TGI in [1], in assay [2], in assay [3], in [4], in assay [5] and in [6] was more than 100 µM each time. Also, the TGI in [7], in [9], in assay [10], in [11], in assay [12] and in assay [13] was more than 100 µM throughout. For the same compound, the TGI in assay [14], in assay [15], in assay [16], in assay [17], in [18] and in [19] was more than 100 µM each time.

Take `Cc1cc(C)nc(NS(=O)(=O)c2ccc(NNC(=O)c3cccc4c(=O)c5ccccc5[nH]c34)cc2)n1`: the TGI in [1], in assay [3], in assay [4], in assay [5], in assay [6] and in assay [7] was more than 100 µM each time. The TGI in [8] was more than 100 µM; in [9], more than 100 µM; in assay [10], more than 100 µM; in assay [20] it was more than 100 µM; in [11], more than 100 µM; in [12], 82.8 µM. The TGI in assay [13], in assay [14], in assay [15], in [16], in assay [17] and in [18] was more than 100 µM throughout. The TGI in assay [19] was more than 100 µM.

Consider `COc1ccc(CCN=C2OCc3ccccc32)cc1OC`, for which the TGI in [1] was more than 100 µM; in assay [2] it was more than 100 µM; in assay [3] it was more than 100 µM; in assay [4] it was more than 100 µM; in [5], 71.3 µM; in assay [6], more than 100 µM. For the same compound, the TGI is more than 100 µM in assay [7]; more than 100 µM in assay [8]; 63.2 µM in assay [11]; more than 100 µM in assay [12]; more than 100 µM in assay [13]; 62.3 µM in assay [14]. Besides, the TGI in assay [15], in assay [16], in [17], in [18] and in assay [19] was more than 100 µM in each case.

With `CC(=O)OC1O[C@@H](C(C)(C)O)CC[C@@H]1[C@H]1CC[C@@]2(C)C3=C(CC[C@]12C)[C@@]1(C)C[C@@H](OC(=O)CC(C)(O)CC(=O)O)[C@H](OC(C)=O)C(C)(C)C1CC3` (some centres not stated), the TGI amounted to 33.9 µM in [1]; 33.8 µM in assay [2]; 29.4 µM in assay [3]; 44.9 µM in [6]; 34.4 µM in assay [7]; 43.9 µM in [8]. In addition, the TGI in assay [9] came to 32.6 µM; in assay [10], 32.2 µM; in assay [12] it was 30.8 µM; in [13], 33.3 µM; in assay [14], 53.2 µM; in [15], 37.4 µM. For the same compound, the TGI in [16] was 33.2 µM; in assay [17] it was 31.4 µM; in assay [18], 31.7 µM; in assay [19], 72.4 µM.

For the compound `O=S(=O)(O)c1ccc(N=Nc2ccc(N=Nc3c(O)ccc4ccccc34)cc2)cc1`, the TGI in assay [1], in assay [3], in [4], in assay [5], in assay [6] and in assay [7] was more than 100 µM in each case. Besides, the TGI in assay [8], in [9], in assay [10], in assay [20], in assay [12] and in assay [13] was more than 100 µM throughout. Besides, the TGI in [14], in assay [15], in assay [16], in [17], in [18] and in [19] was more than 100 µM in each case.

For the compound `COc1ccc(C(O)c2nccn2C)c(OC)c1` (configuration not stated), the TGI in assay [1], in assay [3], in assay [4], in assay [5], in [6] and in assay [7] was more than 100 µM in each case. For the same compound, the TGI in [8], in assay [9], in assay [10], in assay [20], in assay [11] and in assay [12] was more than 100 µM in each case. For the same compound, the TGI in assay [13], in assay [14], in assay [15], in assay [16], in assay [17] and in assay [18] was more than 100 µM in each case. Moreover, the TGI in assay [19] was more than 100 µM.

For the compound `CCSc1[nH]c(Nc2nc(-c3ccccc3)n(-c3ccccc3)n2)c(C(N)=O)c1C(N)=O`, the TGI in [1], in assay [3], in [4], in assay [6], in assay [7] and in assay [8] was more than 10 µM each time. The TGI in assay [20], in assay [12], in [13], in assay [14], in [15] and in assay [16] was more than 10 µM in each case. The TGI in assay [18] and in assay [19] was more than 10 µM in each case.

With `O=C1NC(=S)NNC12c1ccccc1-c1ccccc12`, the TGI is more than 10 µM in [1]; 9.93 µM in [2]; more than 10 µM in assay [3]; more than 10 µM in [4]; more than 10 µM in [6]; more than 10 µM in assay [7]. In addition, the TGI in [8], in assay [11], in [12], in [13], in [14] and in assay [15] was more than 10 µM in each case. In addition, the TGI in assay [16], in assay [17], in assay [18] and in [19] was more than 10 µM each time.

Consider `O=C1/C(=C/c2ccccc2)NC(=S)N1CN1CCOCC1`, for which the TGI in assay [1], in [2], in assay [4], in [5], in assay [6] and in assay [7] was more than 100 µM each time. Further, the TGI in assay [8], in assay [9], in assay [10], in assay [12], in assay [13] and in assay [14] was more than 100 µM in each case. Moreover, the TGI in assay [15], in [16], in [17], in assay [18] and in [19] was more than 100 µM throughout.

On to `O=C(NC(CO)Cc1ccc(Oc2cc(CC(CO)NC(=O)OCc3ccccc3)ccc2OC(=O)OCc2ccccc2)cc1)OCc1ccccc1` (configuration not stated), for which the TGI was more than 100 µM in assay [1]; 50.2 µM in assay [2]; more than 100 µM in assay [3]; 36 µM in [4]; 40.7 µM in assay [5]; 50.4 µM in [6]. Moreover, the TGI in assay [7] is 50.3 µM; in assay [8] it was 22.4 µM; in [9], 45 µM; in assay [10], more than 100 µM; in assay [11], 38.5 µM; in assay [12], 42.9 µM. The TGI in [14] was 60.8 µM; in assay [15], more than 100 µM; in assay [16] it was 54.1 µM; in assay [18], 29 µM.

Consider `O=C1NN=C2C=C(c3ccc(Cl)cc3)CC(c3cccc(Cl)c3)C12` (configuration not stated), for which the TGI in assay [1] is 62.8 µM; in assay [3], more than 100 µM; in assay [4] it was 35.8 µM; in assay [5], 41 µM; in assay [6] it was more than 100 µM; in [7], 65.3 µM. The TGI in [8] is 52.9 µM; in assay [9] it was more than 100 µM; in [10], 75.7 µM; in assay [20] it was 38.5 µM; in assay [11], 55.7 µM; in assay [13], 39.9 µM. The TGI in [14] is 41.7 µM; in assay [15] it was more than 100 µM; in assay [16], 48.1 µM; in assay [17], 39.9 µM; in assay [18] it was 48.5 µM; in assay [19], 33.6 µM.

For `Cc1ccc(NC(=S)NNC(=O)c2cc(-c3ccccc3)nc3ccccc23)cc1`, the TGI is 26.1 µM in assay [1]; 45.9 µM in assay [3]; 35.3 µM in assay [4]; 21.3 µM in assay [5]; 37.7 µM in assay [6]; 12.7 µM in assay [7]. The TGI in assay [8] was 44.3 µM; in assay [9], 21.7 µM; in assay [10], 31.3 µM; in [20], 26.6 µM; in assay [11] it was 30.1 µM; in assay [12], 20.1 µM. The TGI in assay [13] was 35.3 µM; in assay [14], 6.72 µM; in assay [15] it was 25.9 µM; in assay [16], 29.1 µM; in assay [17], 20.2 µM; in [18] it was 33 µM. Moreover, the TGI in assay [19] was found to be 30.6 µM.

In the case of `O=P(O)(Cc1ccccc1)c1ccccc1-c1ccccc1`, the TGI in assay [1], in [3], in assay [4], in assay [5], in assay [6] and in assay [7] was more than 100 µM in each case. The TGI in [8], in assay [10], in assay [20], in [11], in [12] and in assay [13] was more than 100 µM each time. Also, the TGI in assay [14], in assay [15], in assay [16], in assay [17], in [18] and in assay [19] was more than 100 µM each time.

In the case of `O=c1cc(-c2ccccc2)[nH]c2c(S)cccc12`, the TGI in assay [1], in assay [4], in assay [5], in [6], in assay [7] and in assay [8] was more than 100 µM throughout. For the same compound, the TGI in assay [9], in assay [10], in assay [20], in assay [11], in assay [12] and in assay [13] was more than 100 µM throughout. The TGI in assay [14], in assay [15], in assay [16], in assay [17], in [18] and in assay [19] was more than 100 µM throughout.
